# Experimental data: ChEMBL document CHEMBL1124209, “Phosphonoformate and phosphonoacetate derivatives of 5-substituted 2'-deoxyuridines: synthesis and antiviral activity” (1988)
# Experiments:
# Assay type in all cases: functional
# Human alphaherpesvirus 1 [1] = experiment: Minimum inhibitory concentration causing 25% inhibition of cytopathic effect induced by Herpes simplex virus(HSV) -1 (thymidine kinase deficient) in HEp-2 cells
# Human alphaherpesvirus 1 [2] = experiment: Minimum inhibitory concentration causing 25% inhibition of cytopathic effect induced by Herpes simplex virus-1 (K979) in HEp-2 cells
# Mus musculus [3] = experiment: Cumulative mortality in percent of HSV-1 infected mice, after peroral administration of 100 mg/kg of compound; details: route oral
# Mus musculus [4] = experiment: Cumulative mortality in percent of HSV-1 infected mice, after intraperitoneal administration of 25 mg/kg
# Human alphaherpesvirus 1 [5] = experiment: Minimum inhibitory concentration causing 25% inhibition of cytopathic effect induced by Herpes simplex virus(HSV) -1 (thymidine kinase deficient) in vero cells
# Oryctolagus cuniculus [6] = species on record: Oryctolagus cuniculus; experiment: Minimum cytotoxic concentration causing toxic effects on uninfected cells in rabbit
# Mus musculus [7] = experiment: Mean survival time in HSV-1 infected mice, after intraperitoneal administration of 25 mg/kg
# Human alphaherpesvirus 1 [8] = experiment: Minimum inhibitory concentration causing 25% inhibition cytopathic effect induced by Herpes simplex virus-1 (Brand) in HEp-2 cells
# Human alphaherpesvirus 2 [9] = experiment: Minimum inhibitory concentration causing 25% inhibition of cytopathic effect induced by Herpes simplex virus(HSV) -2 (thymidine kinase deficient) in vero cells
# Human alphaherpesvirus 2 [10] = experiment: Minimum inhibitory concentration causing 25% inhibition of cytopathic effect induced by Herpes simplex virus(HSV) -2 (thymidine kinase deficient) in HEp-2 cells
# Human alphaherpesvirus 1 [11] = experiment: Minimum inhibitory concentration causing 25% inhibition of cytopathic effect induced by Herpes simplex virus-1 (Brand) in vero cells
# Human alphaherpesvirus 1 [12] = experiment: Minimum inhibitory concentration causing 25% inhibition of cytopathic effect induced by herpes simplex virus (HSV)-1 (K979) in vero cells.
# Mus musculus [13] = experiment: Mean survival time in HSV-1 infected mice, after peroral administration of 100 mg/kg; details: route oral
# Human alphaherpesvirus 1 [14] = experiment: Mean survival time in HSV-1 infected mice, after peroral administration of 1 mg/kg of compound; details: route oral
# Human alphaherpesvirus 1 [15] = experiment: Cumulative mortality in percent of HSV-1 infected mice, after intraperitoneal administration of 5 mg/kg of compound
# Human alphaherpesvirus 1 [16] = experiment: Mean survival time in HSV-1 infected mice, after intraperitoneal administration of 1 mg/kg of compound
# Human alphaherpesvirus 1 [17] = experiment: Mean survival time in HSV-1 infected mice, after intraperitoneal administration of 0.5 mg/kg of compound
# Mus musculus [18] = experiment: Mean duration of lesions in HSV-1 infected mice, after administration of 0.3 % of compound intracutaneously
# Mus musculus [19] = experiment: Mean duration of lesions in HSV-1 infected mice, after administration of 0.1 % of compound intracutaneously
# Mus musculus [20] = experiment: Cumulative lesions in HSV-1 infected mice, after administration of 0.3 % of compound intracutaneously
# Human alphaherpesvirus 1 [21] = experiment: Mean survival time in HSV-1 infected mice, after intraperitoneal administration of 5 mg/kg of compound
# Human alphaherpesvirus 1 [22] = experiment: Cumulative mortality in percent of HSV-1 infected mice, after peroral administration of 1 mg/kg of compound; details: route oral
# Human alphaherpesvirus 1 [23] = experiment: Mean survival time in HSV-1 infected mice, after peroral administration of 10 mg/kg of compound; details: route oral
# Human alphaherpesvirus 1 [24] = experiment: Cumulative mortality in percent of HSV-1 infected mice, after peroral administration of 5 mg/kg of compound; details: route oral
# Human alphaherpesvirus 1 [25] = experiment: Mean survival time in HSV-1 infected mice, after peroral administration of 5 mg/kg of compound; details: route oral
# Human alphaherpesvirus 1 [26] = experiment: Cumulative mortality in percent of HSV-1 infected mice, after intraperitoneal administration of 0.5 mg/kg of compound
# Human alphaherpesvirus 1 [27] = experiment: Cumulative mortality in percent of HSV-1 infected mice, after peroral administration of 10 mg/kg of compound; details: route oral
# Mus musculus [28] = experiment: Cumulative lesions in HSV-1 infected mice, after administration of 0.1 % of compound intracutaneously
# Human alphaherpesvirus 1 [29] = experiment: Cumulative mortality in percent of HSV-1 infected mice, after intraperitoneal administration of 1 mg/kg of compound
# Human alphaherpesvirus 2 [30] = experiment: (§1) Minimum inhibitory concentration causing 50% inhibition of cytopathic effect induced by HSV-2 in PRK cells
# Human alphaherpesvirus 1 [31] = experiment: Minimum inhibitory concentration causing 50% inhibition of cytopathic effect induced by HSV-1(thymidine kinase deficient) in PRK cells
# Human alphaherpesvirus 1 [32] = experiment: Minimum inhibitory concentration causing 50% inhibition of cytopathic effect induced by HSV-1 in PRK cells
# Human alphaherpesvirus 2 [33] = experiment: Minimum inhibitory concentration causing 25% inhibition cytopathic effect induced by Herpes simplex virus(HSV) -2 (thymidine kinase deficient) in vero cells
# Human alphaherpesvirus 1 [34] = experiment: Minimum inhibitory concentration causing 25% inhibition cytopathic effect induced by Herpes simplex virus(HSV) -1 (thymidine kinase deficient) in HEp-2 cells
# Human alphaherpesvirus 1 [35] = experiment: Minimum inhibitory concentration causing 25% inhibition of cytopathic effect induced by Herpes simplex virus(HSV) -1 (Brand) in HEp-2 cells
# Human alphaherpesvirus 2 [36] = experiment: Minimum inhibitory concentration of compound causing 50% inhibition of cytopathic effect induced by HSV-2 in PRK cells
# Oryctolagus cuniculus [37] = species on record: Oryctolagus cuniculus; experiment: Minimum cytotoxic concentration of compound causing toxic effects on uninfected cells
# Human alphaherpesvirus 1 [38] = experiment: Minimum inhibitory concentration of compound causing 50% inhibition of cytopathic effect induced by HSV-1 in PRK cells
# Human alphaherpesvirus 1 [39] = experiment: Minimum inhibitory concentration of compound causing 50% inhibition of cytopathic effect induced by HSV-1(thymidine kinase deficient) in PRK cells
# Mus musculus [40] = experiment: Cumulative mortality in percent of HSV-1 (KOS strain) infected mice, after peroral administration of 100 mg/kg of compound; details: route oral
# Human alphaherpesvirus 1 [41] = experiment: as §1
SMILES,MIC (Human alphaherpesvirus 1 [1]) [µM],MIC (Human alphaherpesvirus 1 [2]) [µM],MIC (Human alphaherpesvirus 1 [5]) [µM],MTC (Oryctolagus cuniculus [6]),MIC (Human alphaherpesvirus 1 [8]) [µM],MIC (Human alphaherpesvirus 2 [9]) [µM],MIC (Human alphaherpesvirus 2 [10]) [µM],MIC (Human alphaherpesvirus 1 [11]) [µM],MIC (Human alphaherpesvirus 1 [12]) [µM],MST (Human alphaherpesvirus 1 [17]) [days],MDL (Mus musculus [19]) [days],CMP (Human alphaherpesvirus 1 [24]),MST (Human alphaherpesvirus 1 [25]) [days],CMP (Human alphaherpesvirus 1 [26]),lesions (Mus musculus [28]),MIC (Human alphaherpesvirus 2 [33]) [µM],also measured
Nc1nc2c(ncn2COCCO)c(=O)[nH]1 [ACYCLOVIR],440,13.2,44,440 µM,4.4,132,440,0.01,1.3,,,,,,,,CMP (Mus musculus [3]): 10; CMP (Mus musculus [4]): 15; MST (Mus musculus [7]): 18.6 days; MST (Mus musculus [13]): 18.9 days
CCOC(=O)CP(=O)(OC)OC[C@H]1O[C@@H](n2cc(CCCl)c(=O)[nH]c2=O)C[C@@H]1O (some centres undefined),> 220,> 220,66,726 µM,66,> 220,> 220,6.6,> 220,13.9,10.6,75,12.8,58,83,,MST (Human alphaherpesvirus 1 [14]): 8.9 days; CMP (Human alphaherpesvirus 1 [15]): 83; MST (Human alphaherpesvirus 1 [16]): 11.9 days; MDL (Mus musculus [18]): 6 days; lesions (Mus musculus [20]): 58; MST (Human alphaherpesvirus 1 [21]): 11.8 days; CMP (Human alphaherpesvirus 1 [22]): 100; MST (Human alphaherpesvirus 1 [23]): 11.5 days; CMP (Human alphaherpesvirus 1 [27]): 67; CMP (Human alphaherpesvirus 1 [29]): 92
O=c1[nH]c(=O)n([C@H]2C[C@H](O)[C@@H](CO)O2)cc1/C=C/Br [BRIVUDINE],,,,>1302 µM,,,,,,,,,,,,,MIC (Human alphaherpesvirus 2 [30]): 32.6 µM; CMP (Mus musculus [3]): 30; MIC (Human alphaherpesvirus 1 [31]): 1300 µM; MIC (Human alphaherpesvirus 1 [32]): 0.07 µM
O=c1[nH]c(=O)n([C@H]2C[C@H](O)[C@@H](CO)O2)cc1I [IDOXURIDINE],,0.8,8.4,281 µM,0.8,,8.4,0.3,2.8,,,,,,,> 281,MIC (Human alphaherpesvirus 1 [34]): 0.8 µM
COP(=O)(CC(=O)OC[C@H]1O[C@@H](n2cc(I)c(=O)[nH]c2=O)C[C@@H]1O)OC,> 198,198,2,655 µM,,59.5,,0.6,5.9,,,,,,,,MIC (Human alphaherpesvirus 1 [35]): 0.2 µM
O=C(O)CP(=O)(O)OC[C@H]1O[C@@H](n2cc(CCCl)c(=O)[nH]c2=O)C[C@@H]1O,23.2,69.6,23.2,766 µM,2.3,,232,2.3,232,14.2,5.3,92,11.2,50,60,> 232,MST (Human alphaherpesvirus 1 [14]): 8.6 days; CMP (Human alphaherpesvirus 1 [15]): 25; MST (Human alphaherpesvirus 1 [16]): 14.1 days; MST (Human alphaherpesvirus 1 [21]): 17.3 days; CMP (Human alphaherpesvirus 1 [22]): 100; MST (Human alphaherpesvirus 1 [23]): 15.3 days; CMP (Human alphaherpesvirus 1 [27]): 50; CMP (Human alphaherpesvirus 1 [29]): 58
O=c1[nH]c(=O)n([C@H]2C[C@H](O)[C@@H](CO)O2)cc1CCCl,,10.2,34.2,1127 µM,0.1,,> 342,0.03,102,16.7,2.4,10,19,35,40,> 342,MIC (Human alphaherpesvirus 2 [36]): 34.2 µM; MTC (Oryctolagus cuniculus [37]): >1366 µM; MDL (Mus musculus [18]): 0.9 days; lesions (Mus musculus [20]): 17; MIC (Human alphaherpesvirus 1 [38]): 0.3 µM; MIC (Human alphaherpesvirus 1 [39]): > 1370 µM; MIC (Human alphaherpesvirus 1 [34]): > 342 µM
CCOC(=O)CP(=O)(O)OC[C@H]1O[C@@H](n2cc(/C=C/Br)c(=O)[nH]c2=O)C[C@@H]1O,,,,>=828 uM,,,,,,,,,,,,,CMP (Mus musculus [40]): 80; MIC (Human alphaherpesvirus 1 [41]): > 828 µM; MIC (Human alphaherpesvirus 1 [31]): > 828 µM; MIC (Human alphaherpesvirus 1 [32]): 41.4 µM
